How the values were obtained:
[1] = reversed-phase LC retention time (C18, 15 min MeOH gradient); higher = more hydrophobic / later elution
[2] = collision cross section (TIMS, N2 drift gas) of the primary ion; higher = larger gas-phase ion size
[3] = ionization mode: ESI-, ion species: [M-H]-
[4] = ionization mode: ESI+, ion species: [M+H]+

Row | Compound | reversed-phase LC retention time [1, 3] [min] | collision cross section [2, 3] [Å²] | reversed-phase LC retention time [1, 4] [min] | collision cross section [2, 4] [Å²]
1 | O=S(=O)(O)c1ccccc1 [Benzenesulfonic acid] | 2.42 | 125.05 |  | 
2 | CCN(CC)C(=O)C(C)Oc1cccc2ccccc12 (stereo unspecified) [Napropamide] |  |  | 14.9 | 164.64
3 | CCCCCCCCCC(=O)N(C)C [N,N-Dimethyldecan-1-amide] |  |  | 16.1 | 159.08
4 | CCCCCCCCCCCCCC[N+](C)(C)[O-] [N,N-Dimethyltetradecylamine-N-oxide] |  |  | 16.8 | 184.89
5 | Cc1c(C(C)C)c(=O)n(-c2ccccc2)n1C [Propyphenazone] |  |  | 12.3 | 153.65
6 | CC(=O)O[C@]1(C(C)=O)CC[C@H]2[C@@H]3C=C(C)C4=CC(=O)CC[C@]4(C)[C@H]3CC[C@@]21C [Megestrol-17-acetate] |  |  | 15.2 | 198.3
7 | C[C@]12CC[C@@H]3c4ccc(O)cc4CC[C@H]3[C@@H]1C[C@@H](O)[C@@H]2O [Estriol] | 11.4 | 176.65 |  | 
8 | O=c1c(O[C@@H]2O[C@H](CO)[C@H](O)[C@H](O)[C@H]2O)c(-c2ccc(O)c(O)c2)oc2cc(O)cc(O)c12 [Hyperin] | 7.66 | 201.31 |  | 
9 | O=S(=O)(O)C(F)(F)C(F)(F)C(F)(F)C(F)(F)C(F)(F)C(F)(F)C(F)(F)C(F)(F)F [Perfluorooctanesulfonic acid] | 15.4 | 169.04 |  | 
10 | COCC(=O)N(c1c(C)cccc1C)C(C)C(=O)OC (stereo unspecified) [Metalaxyl] |  |  | 12.7 | 160.45
11 | CC(C)N1C(=O)c2ccccc2NS1(=O)=O [Bentazone] | 7.56 | 145.72 |  | 
12 | CC1CN(C2CCCCCCCCCCC2)CC(C)O1 (stereo unspecified) [Dodemorph] |  |  | 13.3 | 175.75
13 | C[C@H]1[C@H](C)CC[C@]2(C(=O)O)CC[C@]3(C)C(=CC[C@@H]4[C@@]5(C)CC[C@H](O)C(C)(C)[C@@H]5CC[C@]43C)[C@H]12 [Ursolic acid] | 17.6 | 219.38 | 18.4 | 208.26
14 | C[C@@H](O)CCCCn1c(=O)c2c(ncn2C)n(C)c1=O [Lisofylline] |  |  | 10.3 | 162.42
15 | O=C(O)C(F)(F)C(F)(F)C(F)(F)C(F)(F)C(F)(F)C(F)(F)C(=O)O [Perfluorosuberic acid] | 6.68 | 143.37 |  | 
16 | CN(C)C(=O)NC1CCCCC1 [3-Cyclohexyl-1,1-dimethylurea] |  |  | 10.8 | 139.49
17 | CC(C)c1ccc(NC(=O)N(C)C)cc1 [Isoproturon] |  |  | 13 | 151.88
18 | O=[N+]([O-])c1ccc(O)c([N+](=O)[O-])c1 [2,4-Dinitrophenol] | 6.09 | 125.27 |  | 
19 | COc1cc2nc(N3CCNCC3)nc(N)c2cc1OC [6,7-Dimethoxy-2-(piperazin-1-yl)quinazolin-4-amine] |  |  | 6.11 | 172.06
20 | CC(C)Nc1nc(N)nc(Cl)n1 [Atrazine desethyl] |  |  | 9.74 | 138.83

Row | Compound | reversed-phase LC retention time [1, 3] [min] | collision cross section [2, 3] [Å²] | reversed-phase LC retention time [1, 4] [min] | collision cross section [2, 4] [Å²]
21 | Cc1ccc(S(=O)(=O)O)c(C)c1 [m-Xylene-4-sulfonic acid] | 7.68 | 136.84 |  | 
22 | CCCCC(CC)COC(=O)c1ccc(Nc2nc(Nc3ccc(C(=O)OCC(CC)CCCC)cc3)nc(Nc3ccc(C(=O)OCC(CC)CCCC)cc3)n2)cc1 (stereo unspecified) |  |  | 19.5 | 282.62
23 | CC(C)(C)Nc1nc(N)nc(O)n1 [2-Hydroxydesethylterbuthylazine] | 8.55 | 140.22 | 6.43 | 142.3
24 | NC(=O)c1c(Cl)cccc1Cl [2,6-Dichlorobenzamide] |  |  | 7.49 | 133.04
25 | O=C(O)c1ccccc1Nc1cccc(C(F)(F)F)c1 [Flufenamic acid] | 14 | 159.1 |  | 
26 | CO/N=C(/C(=O)OC)c1ccccc1CO/N=C(\C)c1cccc(C(F)(F)F)c1 [Trifloxystrobin] |  |  | 16.3 | 188.81
27 | CC(Cc1ccc(C(C)(C)C)cc1)CN1C[C@@H](C)O[C@@H](C)C1 (stereo partly specified) [Fenpropimorph] |  |  | 13.8 | 174.32
28 | CC(CCl)OP(=O)(OC(C)CCl)OC(C)CCl (stereo unspecified) [Tris(1-chloro-2-propyl)phosphate] |  |  | 14.3 | 162.58
29 | Oc1cc(Cl)ccc1Oc1ccc(Cl)cc1Cl [Triclosan] | 16.8 | 158.5 |  | 
30 | O=C1NS(=O)(=O)c2ccccc21 [Saccharin] | 4.8 | 128.86 |  | 
31 | CCNC(=O)c1cccc(C)c1 [N-Ethyl-3-methylbenzamide] |  |  | 10.7 | 135.66
32 | Cc1cc(-c2ccc(N)c(C)c2)ccc1N [o-Tolidine] |  |  | 7.76 | 165.69
33 | CSc1nnc(C(C)(C)C)c(=O)n1N [Metribuzin] |  |  | 11.4 | 147.77
34 | O=C1Nc2ccc(Cl)cc2C(c2ccccc2)=NC1O (stereo unspecified) [Oxazepam] | 13.4 | 162.74 | 13.1 | 164.08
35 | O=C(O)C(F)(F)C(F)(F)C(F)(F)C(F)(F)C(F)(F)C(F)(F)C(F)(F)C(F)(F)F [Perfluorononanoic acid] | 15.4 | 164.37 |  | 
36 | O=C(O)C(F)(F)C(F)(F)C(F)(F)C(F)(F)C(F)(F)C(F)(F)C(F)(F)C(F)(F)C(F)(F)C(F)(F)C(F)(F)F [Perfluorododecanoic acid] | 17 | 191.62 |  | 
37 | Cc1cccc(C)c1N(Cn1cccn1)C(=O)CCl [Metazachlor] |  |  | 12.9 | 159.2
38 | O=Cc1c[nH]c2ccccc12 [Indole-3-carboxyaldehyde] | 9.34 | 122.39 |  | 
39 | Nc1nnc(-c2cccc(Cl)c2Cl)c(N)n1 [Lamotrigine] |  |  | 9.33 | 153.91
40 | CCN(CC)CC#CCOC(=O)C(O)(c1ccccc1)C1CCCCC1 (stereo unspecified) [Oxybutynin] |  |  | 13.4 | 187.9

Second part, the compound after the results:

Row | reversed-phase LC retention time [1, 3] [min] | collision cross section [2, 3] [Å²] | reversed-phase LC retention time [1, 4] [min] | collision cross section [2, 4] [Å²] | Compound
41 |  |  | 10.5 | 176.34 | CC(CCc1ccccc1)NCC(O)c1ccc(O)c(C(N)=O)c1 (stereo unspecified) [Labetalol]
42 | 14 | 214.7 | 14.8 | 208.58 | COc1ccc(Cl)cc1C(=O)NCCc1ccc(S(=O)(=O)NC(=O)NC2CCCCC2)cc1 [Glibenclamide]
43 |  |  | 13.2 | 216.99 | CC(=O)N1CCN(c2ccc(OC[C@H]3CO[C@](Cn4ccnc4)(c4ccc(Cl)cc4Cl)O3)cc2)CC1 [Ketoconazole]
44 |  |  | 14.8 | 231.31 | COc1ccccc1Oc1c(NS(=O)(=O)c2ccc(C(C)(C)C)cc2)nc(-c2ncccn2)nc1OCCO [Bosentan]
45 |  |  | 14.6 | 175 | CN(C)C(=O)Nc1ccc(Oc2ccc(Cl)cc2)cc1 [Chloroxuron]
46 | 0.97 | 159.15 |  |  | O=S(=O)(O)c1ccc2ccc(S(=O)(=O)O)cc2c1 [2,7-Naphthalenedisulfonic acid]
47 | 0.96 | 135.07 |  |  | O=C(O)Cc1ccc(S(=O)(=O)O)cc1 [(4-Sulfophenyl)acetic acid]
48 | 17 | 244.69 | 17.7 | 243.08 | CC(C)(O)c1ccccc1CCC(SCC1(CC(=O)O)CC1)c1cccc(C=Cc2ccc3ccc(Cl)cc3n2)c1 (stereo unspecified) [Montelukast]
49 |  |  | 8.13 | 160.33 | Cc1cccc(C(=O)O)c1N(Cn1cccn1)C(=O)C(=O)O [Metazachlor BH479-12]
50 |  |  | 11.9 | 162.42 | O=C1NC(=O)C(c2ccccc2)(c2ccccc2)N1 [Phenytoin]
51 |  |  | 11 | 191.63 | CC(C)NCC(O)COc1ccc(COCCOC(C)C)cc1 (stereo unspecified) [Bisoprolol]
52 |  |  | 10.4 | 171.03 | CC(C1=C(CCN(C)C)Cc2ccccc21)c1ccccn1 (stereo unspecified) [Dimethindene]
53 | 13.1 | 177.92 |  |  | O=C(O)c1cc(Oc2ccc(Cl)cc2Cl)ccc1[N+](=O)[O-] [Bifenox free acid]
54 | 6.7 | 155.15 | 6.69 | 154.05 | Nc1ccc(S(=O)(=O)Nc2ccccn2)cc1 [Sulfapyridine]
55 | 14.3 | 188.8 | 10.8 | 177.46 | CC(Cc1ccc(C(C)(C)C(=O)O)cc1)CN1CC(C)OC(C)C1 (stereo unspecified) [Fenpropimorph acid]
56 |  |  | 13.1 | 194.45 | CO/N=C(/C(=O)O)c1ccccc1CO/N=C(/C(=O)O)c1cccc(C(F)(F)F)c1
57 |  |  | 13.6 | 195.58 | CO/N=C(/C(=O)O)c1ccccc1CO/N=C(\C(=O)O)c1cccc(C(F)(F)F)c1
58 | 13.3 | 176.43 | 11.1 | 179.07 | CCc1ccc(CCOc2ccc(CC3SC(=O)NC3=O)cc2)nc1 (stereo unspecified) [Pioglitazone]
59 |  |  | 13.4 | 177.66 | CNCCC(Oc1ccc(C(F)(F)F)cc1)c1ccccc1 (stereo unspecified) [Fluoxetine]
60 | 13.4 | 161.33 |  |  | CC(C)(c1ccc(O)cc1)c1ccc(O)cc1 [Bisphenol A]

From the supplement of paper PMC12613149
